How the values were obtained:
[1] = Pharmacokinetic assay in ICR mice; assay type: in vivo; details: male ICR mice, iv 1 mg/kg and po 10 mg/kg, plasma by LC/MS/MS
Experimental: ICR mice (purchased from Beijing Viton Lihua Laboratory Animal Technology Co.)
2.2 Experimental procedure • (1) Healthy male ICR mice (18-22 g) were prepared, with 18 mice for each compound which were divided into 2 groups (iv and po groups) of 9 mice each, and 3 mice were selected for blood collection at each time point. • (2) After fasting (free water intake) overnight, the compound of the invention was solubilized (or formed into a suspension) with 5% DMSO, 95% 30% HP-β-CD (v: v) as solvent. The compound was administered via the tail vein (iv, 1 mg/kg) and by gavage (po, 10 mg/kg), respectively. • (3) In the iv group, 0.1 mL of blood was collected from the submandibular vein at 5 min, 15 min, 0.5 h, 1 h, 2 h, 4 h, 8 h, 12 h, and 24 h, respectively, and the blood was anticoagulated with EDTA-K2, and then centrifuged at 4° C. for 5 min to separate the plasma, which was stored at-20° C. before measurement. • (4) In the po group, 0.1 mL of blood was collected from the submandibular vein before and after administration at 15 min, 0.5h, 1h, 2h, 4h, 6h, 8h, 12h and 24h respectively, and processed in the same manner as in the iv group. • (5) The concentration of the compound of the present invention in plasma was determined by a LC/MS/MS method. • (6) The results were calculated and fitted using Analyst 1.6 from AB.

[2] = Dynamic vapor sorption (DVS) test; assay type: physicochemical
Experimental: The crystalline form I of Compound A prepared in Example 3 was subjected to dynamic vapor sorption test, and the dynamic vapor sorption (DVS) curves were acquired on DVS Intrinsic of SMS (Surface Measurement Systems). The relative humidity at 25° C. was corrected with the deliquescence points of LiCl, Mg (NO3)2, and KCl.

[3] = Solid-state stability (XRPD for physical, HPLC purity for chemical stability); assay type: physicochemical

pharmacokinetic properties [1] | change in sample weight (DVS) ([2]; 0% RH-95% RH-0% RH at 25° C.) | hygroscopicity (DVS) ([2]; 0% RH-95% RH-0% RH at 25° C.) | SMILES | transformation of crystalline form before and after DVS (XRPD comparison) ([2]; XRPD before and after DVS) | solid-state stability: crystalline transformation (XRPD) and purity (HPLC) ([3]; 25° C./60% RH/open, 1 week) | solid-state stability: crystalline transformation (XRPD) and purity (HPLC) ([3]; 40° C./75% RH/open, 1 week) | solid-state stability: crystalline transformation (XRPD) and purity (HPLC) ([3]; 60° C./close, 1 day) | solid-state stability: crystalline transformation (XRPD) and purity (HPLC) ([3]; 80° C./close, 1 day)
good pharmacokinetic properties | – | – | CCn1c(=O)n(C2CCOCC2)c2nc(Nc3cc(F)c(C(N)=O)cc3C)ncc21 [Compound A, 4-((7-ethyl-8-oxo-9-(tetrahydro-2H-pyran-4-yl)-8,9-dihydro-7H-purin-2-yl)amino)-2-fluoro-5-methylbenzamide] | – | – | – | – | –
– | less than 0.2% | free or almost free of hygroscopicity | CCn1c(=O)n(C2CCOCC2)c2nc(Nc3cc(F)c(C(N)=O)cc3C)ncc21 [crystalline form I, 4-((7-ethyl-8-oxo-9-(tetrahydro-2H-pyran-4-yl)-8,9-dihydro-7H-purin-2-yl)amino)-2-fluoro-5-methylbenzamide] | no transformation of crystalline form occurred | no crystalline transformation or decrease in purity was observed | no crystalline transformation or decrease in purity was observed | no crystalline transformation or decrease in purity was observed | no crystalline transformation or decrease in purity was observed

— patent US20240391921A1, “CRYSTAL FORM OF IMIDAZOLINONE DERIVATIVE” (CHENGDU BAIYU PHARMACEUTICAL CO., LTD., priority 2021, published 2024)
